Assay results as given in US10987346B2, “Iloperidone for the treatment of schizophrenia” (Vanda Pharmaceuticals, Inc., priority 2015, dated 2021).

What was measured:
[1] = system: patients with schizophrenia; assay: Randomized withdrawal relapse-prevention study (NCT01291511): safety assessments; assay type: in vivo, human; details: for Patients with at least 1 TEAE: Full Analysis Population; for Primary Reason for Discontinuation: Abnormal Laboratory Value(s) / Primary Reason for Discontinuation: Abnormal Test Procedure Result(s) / Primary Reason for Discontinuation: Adverse Event(s) / Primary Reason for Discontinuation: Death: interim analysis population, % of discontinued
From the text: Safety assessments included collection of adverse events (AEs), clinical laboratory evaluations, 12-lead electrocardiograms (ECGs), body weight, vital signs, Columbia Suicide Severity Rating Scale (C-SSRS), and movement disorder rating scales (Barnes Akathisia Scale [BAS], Abnormal Involuntary Movement Scale [AIMS], and Simpson Angus Scale [SAS]).
The safety population was defined for each study phase (Titration and Stabilization or Double-Blind Relapse Prevention). For each phase, the safety population included all patients who received at least 1 dose of study medication during the corresponding phase. Descriptive statistics by study phase for each of the safety assessments were calculated.

[2] = system: patients with schizophrenia; assay: Randomized withdrawal relapse-prevention study (NCT01291511): efficacy assessments; assay type: in vivo, human; details: for Avg Time to Relapse or Impending Relapse: full analysis population; for Hazard Ratio (95% CI): favoring iloperidone over placebo
Procedure: Study subjects were adults with schizophrenia who were first treated with open-label iloperidone 12 mg/day given as 6 mg BID and then stabilized for a further 14-24 weeks with a flexible-dose iloperidone regimen as per investigator judgment ranging between 8-24 mg/day daily dose (given BID). Subjects who remained clinically stable for at least 12 weeks entered the relapse prevention phase and were randomized 1:1 to either continue on the same flexible dose regimen of iloperidone or to withdraw from iloperidone to matched placebo in a double-blinded fashion. Subjects were followed for up to 26 weeks and were withdrawn upon showing signs of relapse or impending relapse. A pre-defined unblinded interim analysis (IA) was conducted utilizing a group sequential testing procedure with an O'Brien-Fleming stopping boundary after 68 relapse or impending relapse events were observed. The primary outcome was time-to-relapse or impending relapse with event criteria defined in the protocol prior to first subject enrollment.
A randomized, double-blind, placebo-controlled, parallel-group study (ClinicalTrials.gov identifier NCT01291511) was performed at 27 centers in the United States, 15 in India and 24 in Ukraine.
The study consisted of five phases, the first four of which are shown in FIG. 1: screening phase, open-label titration phase, open-label stabilization phase, double-blind randomized withdrawal phase, and open-label extension phase (not shown).
In the Open-Label Titration Phase, patients received iloperidone 1, 2, 4, 6, 6, 6, 6 mg twice daily on Days 1 through 7, respectively. All previous antipsychotic treatments were discontinued prior to, or within 4 days, after the first day of iloperidone treatment. If the Investigator felt that it was necessary to titrate down the previous antipsychotic medication, the dose reduction was to be done within the first 4 days initiating iloperidone treatment (i.e., previous medication fully discontinued by Day 4).
In the Open-Label Stabilization Phase, patients received flexible doses of iloperidone 4 to 12 mg twice daily (8 to 24 mg/day). Patients needed to be clinically stable for a minimum of 12 weeks prior to randomization.
In the Double-Blind Randomized Withdrawal Phase, patients were randomized to receive iloperidone or placebo. Patients randomized to iloperidone initially took the dose level being received during the last 4 weeks of the Stabilization Phase and then treated with flexible doses of iloperidone 4 to 12 mg twice daily (8 to 24 mg/day).
Patients needed to be clinically stable throughout the last 12 weeks of the Stabilization Phase to be eligible for randomization. “Clinically stable” adult outpatients were defined as: meeting DSM-IV criteria for schizophrenia, and remaining stable following 12 weeks of open-label treatment with flexible doses of iloperidone, being on an established dose of iloperidone that remained unchanged due to efficacy during the 4 weeks prior to randomization; PANSS total score ≤70 and CGI-S score ≤4; Score of ≤4 on each of the following individual PANSS items: P1 (delusion), P2 (conceptual disorganization), P3 (hallucinatory behavior), P6 (suspiciousness/persecution), P7 (hostility), or G8 (uncooperativeness); and no hospitalization or increase in level of care to treat exacerbations.
The primary efficacy endpoint was time to relapse or impending relapse. Relapse or impending relapse during the double-blind relapse prevention phase was defined as any of the following: hospitalization (voluntary or involuntary) due to worsening of schizophrenia; an increase (worsening) of the PANSS total score of ≥30% from randomization, confirmed at a second visit conducted with 1 to 7 days later; patient had clinically significant suicidal, homicidal, or aggressive behavior; CGI-I score of ≥6 (much worse) or 7 (very much worse) after randomization; or an increase in iloperidone dose or in need of additional antipsychotic treatment. […]

[3] = Double-Blind Relapse Prevention Phase, N = 151
[4] = Relapse Prevention Phase, end of the study
[5] = Titration and Stabilization Phase
[6] = Titration/Stabilization Phase, N = 629
[7] = end of Titration and Stabilization Phase

Structure (SMILES): COc1cc(C(C)=O)ccc1OCCCN1CCC(c2noc3cc(F)ccc23)CC1 [iloperidone]
- TEAE incidence: Dizziness [1, 3]: 4 (2.6) n (%)
- TEAE incidence: Dry Mouth [1, 3]: 0 n (%)
- TEAE incidence: Headache [1, 3]: 3 (2.0) n (%)
- TEAE incidence: Insomnia [1, 3]: 3 (2.0) n (%)
- TEAE incidence: Nausea [1, 3]: 2 (1.3) n (%)
- TEAE incidence: Schizophrenia [1, 3]: 3 (2.0) n (%)
- TEAE incidence: Somnolence [1, 3]: 2 (1.3) n (%)
- TEAE incidence: Weight increased [1, 3]: 2 (1.3) n (%)
- Patients with at least 1 TEAE [1, 3]: 60 (39.7) n (%)
- changes in AIMS scores ([1]; Relapse Prevention Phase): No clinically meaningful changes
- mean change from baseline in QTcF ([1]; Relapse Prevention Phase): 4.9 ms
- most common SAE: schizophrenia ([1]; Relapse Prevention Phase): 1.3%
- patients discontinued due to TEAEs ([1]; Relapse Prevention Phase): 6%
- patients reporting akathisia as TEAE ([1]; Relapse Prevention Phase): 1%
- patients reporting extrapyramidal disorder as TEAE ([1]; Relapse Prevention Phase): 1%
- patients who experienced a SAE ([1]; Relapse Prevention Phase): 4%
- patients who experienced a TEAE ([1]; Relapse Prevention Phase): 40%
- patients in whom akathisia was absent (BAS) ([1]; Relapse Prevention Phase, at completion): 95%
- mean change from baseline in weight [1, 4]: 0.02 kg
- patients with ≥7% increase in weight from baseline [1, 4]: 38%
- waist circumference versus placebo [1, 4]: no notable differences
- Primary Reason for Discontinuation: Abnormal Laboratory Value(s) ([1]; Relapse Prevention Phase): 3 (13) n (%)
- Primary Reason for Discontinuation: Abnormal Test Procedure Result(s) ([1]; Relapse Prevention Phase): 1 (4) n (%)
- Primary Reason for Discontinuation: Adverse Event(s) ([1]; Relapse Prevention Phase): 3 (13) n (%)
- Primary Reason for Discontinuation: Death ([1]; Relapse Prevention Phase): 1 (4) n (%)
- changes in Abnormal Involuntary Movement Scale (AIMS) scores [1, 5]: No clinically meaningful changes
- discontinuation due to TEAE: QT prolongation [1, 5]: 1.1%
- discontinuation due to TEAE: dizziness [1, 5]: 1.4%
- discontinuation due to TEAE: schizophrenia [1, 5]: 1.9%
- mean change from baseline in QTcF [1, 5]: 6.4 ms
- most common SAE: schizophrenia [1, 5]: 1.4%
- patients discontinued due to TEAEs [1, 5]: 15%
- patients reporting akathisia as TEAE [1, 5]: 4%
- patients reporting extrapyramidal disorder as TEAE [1, 5]: 3%
- patients who experienced a SAE [1, 5]: 4%
- patients who experienced a Treatment-Emergent Adverse Event (TEAE) [1, 5]: 69%
- patients who died while receiving iloperidone ([1]; Titration and Stabilization Phase, one patient, alcohol poisoning): 0.2%
- TEAE incidence: Dizziness [1, 6]: 73 (11.6) n (%)
- TEAE incidence: Dry Mouth [1, 6]: 43 (6.8) n (%)
- TEAE incidence: Headache [1, 6]: 40 (6.4) n (%)
- TEAE incidence: Insomnia [1, 6]: 35 (5.6) n (%)
- TEAE incidence: Nausea [1, 6]: 32 (5.1) n (%)
- TEAE incidence: Schizophrenia [1, 6]: 15 (2.4) n (%)
- TEAE incidence: Somnolence [1, 6]: 52 (8.3) n (%)
- TEAE incidence: Weight increased [1, 6]: 34 (5.4) n (%)
- Patients with at least 1 TEAE [1, 6]: 433 (68.8) n (%)
- Primary Reason for Discontinuation: Abnormal Laboratory Value(s) ([1]; Titration/Stabilization Phase): 19 (8) n (%)
- Primary Reason for Discontinuation: Abnormal Test Procedure Result(s) ([1]; Titration/Stabilization Phase): 5 (2) n (%)
- Primary Reason for Discontinuation: Adverse Event(s) ([1]; Titration/Stabilization Phase): 80 (32) n (%)
- Primary Reason for Discontinuation: Death ([1]; Titration/Stabilization Phase): 1 (<1) n (%)
- mean change from baseline in weight [1, 7]: 0.5 kg
- patients in whom akathisia was absent (Barnes Akathisia Scale) [1, 7]: 97%
- patients with ≥7% increase in weight from baseline [1, 7]: 17%
- QTcF prolongation in relation to dose/exposure ([1]; longer-term trial, higher exposures associated with more QT prolongation): dose-dependent
- adverse events during maintenance period ([1]; patients administered 16 mg/day or less): reduction in adverse events
- most common adverse events suspected to be related to iloperidone ([1]; stabilization phase): dizziness, somnolence and dry mouth
- patients with elevations in LDL ([1]; versus none on placebo): 2.6%
- patients with elevations in blood urea nitrogen (BUN) ([1]; versus none on placebo): 4.5%
- Avg Time to Relapse or Impending Relapse ([2]; 8 mg/d, n=18): <30 days
- Avg Time to Relapse or Impending Relapse ([2]; 12 mg/d, n=58): >120 days
- Avg Time to Relapse or Impending Relapse ([2]; 20 mg/d, n=14): >120 days
- Average Time to Relapse ([2]; Final (FAS)): 140 days
- Relapse Rate ([2]; Final (FAS) (N = 151)): 17.9%
- Hazard Ratio (95% CI) ([2]; Final (FAS)): 5.2
- Hazard Ratio (95% CI) ([2]; Final (FAS), listed as Iloperidone): 5.2 (3.2, 8.4)
- Relapse Rate ([2]; Interim Analysis Population (N = 97)): 20.4%
- Hazard Ratio (95% CI) ([2]; Interim Analysis Population, Cox regression): 4.7
- Hazard Ratio (95% CI) ([2]; Interim Analysis Population, Cox regression, listed as Iloperidone): 4.7 (2.7, 8.3)
- Average Time to Relapse ([2]; Interim Analysis Population, KM estimates): 139 days
- CGI-I outcome in the majority of patients ([2]; Relapse Prevention Phase): showed improvement
- adjusted mean CGI-I score ([2]; Relapse Prevention Phase, LOCF): 3.3
- adjusted mean change from randomization baseline at endpoint in PANSS total score ([2]; Relapse Prevention Phase, LOCF): 2.3 points
- mean improvement on the PANSS total score ([2]; during Titration and Stabilization Phase, patients randomized in the IA (N=195)): −19.5±10.1 points
- time to relapse compared with placebo (FIG. 2) ([2]; interim analysis population, Kaplan-Meier): statistically significant longer time to relapse
- estimated relapse rate at the end of the double-blind relapse prevention phase (KM est.) ([2]; interim analysis, flexible dose 8-24 mg/day): 20.4%
